These results are taken from the NIST ThermoML archive (doi:10.1016/j.jct.2017.03.011).

Numbers after ± are expanded uncertainties.

The nature of data set [1]: Molar enthalpy of transition or fusion. The following applies: DSC.

Turning to `O=C1COC(=O)CO1` [1,4-dioxane-2,5-dione], the “Molar enthalpy of transition or fusion” value in data set [1] (Crystal 1) came out at 3.28 ± 0.335 kcal/mol; in data set [1] (Crystal 2) it was 0.416 ± 0.0478 kcal/mol. For the same molecule, the Normal melting temperature (Crystal 1, DTA) came out at 83.00 ± 2 °C. Under “Crystal 2, DSC”, the Triple point temperature is listed as 316.55 ± 2.1 K.
